“And” between values parts separate entries of the source, which are not always exact repeats. Identical values can stand only once.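 Where inhibition never reached the appropriate level, the endpoint shown equals the highest concentration tested. Otherwise, values were interpolated linearly from a five-concentration, 48-hour dose response in 96-well plates. GI50 is the concentration that inhibits growth by half.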 The source made the active and inactive calls. Rule as the data show it: active = GI50 up to about 1.1 µM and inactive = higher.
Assays:
Assay in all cases: inhibition of tumour cell growth, NCI panel, 48 h
786-0 = tested on: 786-0
A549 = tested on: A549
ACHN = tested on: ACHN
CAKI-1 = tested on: CAKI-1
CCRF-CEM = tested on: CCRF-CEM
COLO 205 = tested on: COLO 205
DLD-1 = tested on: DLD-1
DMS-114 = tested on: DMS-114
DMS-273 = tested on: DMS-273
EKVX = tested on: EKVX
HCC 2998 = tested on: HCC 2998
HCT-116 = tested on: HCT-116
HCT-15 = tested on: HCT-15
HL-60 = tested on: HL-60
HOP-62 = tested on: HOP-62
HT-29 = tested on: HT-29
IGROV-1 = tested on: IGROV-1
K562 = tested on: K562
KM-20L2 = tested on: KM-20L2
KM12 = tested on: KM12
LOX IMVI = tested on: LOX IMVI
LXFL 529 = tested on: LXFL 529
M14 = tested on: M14
M19-MEL = tested on: M19-MEL
MOLT-4 = tested on: MOLT-4
Malme-3M = tested on: Malme-3M
NCI-H226 = tested on: NCI-H226
NCI-H23 = tested on: NCI-H23
NCI-H460 = tested on: NCI-H460
NCI-H522 = tested on: NCI-H522
OVCAR-3 = tested on: OVCAR-3
OVCAR-4 = tested on: OVCAR-4
OVCAR-5 = tested on: OVCAR-5
OVCAR-8 = tested on: OVCAR-8
RPMI-8226 = tested on: RPMI-8226
RXF 393 = tested on: RXF 393
SF-268 = tested on: SF-268
SF-295 = tested on: SF-295
SK-MEL-28 = tested on: SK-MEL-28
SK-MEL-2 = tested on: SK-MEL-2
SK-MEL-5 = tested on: SK-MEL-5
SK-OV-3 = tested on: SK-OV-3
SN12C = tested on: SN12C
SNB-19 = tested on: SNB-19
SNB-75 = tested on: SNB-75
SR = tested on: SR
SW-620 = tested on: SW-620
TK-10 = tested on: TK-10
U-251 = tested on: U-251
UACC-257 = tested on: UACC-257
UACC-62 = tested on: UACC-62
UO-31 = tested on: UO-31
XF498 = tested on: XF498
A498 = tested on: A498
HOP-92 = tested on: HOP-92
SF-539 = tested on: SF-539
SNB-78 = tested on: SNB-78

O=C1Nc2ccc(Cl)c(I)c2C1=O
GI50 (786-0): 19.7 µM (inactive) | GI50 (A549): 44.7 µM (inactive) | GI50 (ACHN): 16.7 µM (inactive) | GI50 (CAKI-1): 21.6 µM (inactive) | GI50 (CCRF-CEM): 15.4 µM (inactive) | GI50 (COLO 205): 18.7 µM (inactive) | GI50 (DLD-1): 16.9 µM (inactive) | GI50 (DMS-114): 17.5 µM (inactive) | GI50 (DMS-273): 16.5 µM (inactive) | GI50 (EKVX): 5.62 µM (inactive) | GI50 (HCC 2998): 14.6 µM (inactive) | GI50 (HCT-116): 15.2 µM (inactive) | GI50 (HCT-15): 20.9 µM | GI50 (HL-60): 16.1 µM (inactive) | GI50 (HOP-62): 19.5 µM (inactive) | GI50 (HT-29): 29.6 µM (inactive) | GI50 (IGROV-1): 17.1 µM (inactive) | GI50 (K562): 22.3 µM (inactive) | GI50 (KM-20L2): 19.7 µM (inactive) | GI50 (KM12): 26.5 µM (inactive) | GI50 (LOX IMVI): 18.5 µM (inactive) | GI50 (LXFL 529): 16.8 µM (inactive) | GI50 (M14): 17 µM (inactive) | GI50 (M19-MEL): 11.7 µM (inactive) | GI50 (MOLT-4): 22.9 µM (inactive) | GI50 (Malme-3M): 20.2 µM (inactive) | GI50 (NCI-H226): 0.608 µM (active) | GI50 (NCI-H23): 18.9 µM (inactive) | GI50 (NCI-H460): 21.2 µM (inactive) | GI50 (NCI-H522): 17.2 µM (inactive) | GI50 (OVCAR-3): 21.1 µM (inactive) | GI50 (OVCAR-4): 18.1 µM (inactive) | GI50 (OVCAR-5): 19.7 µM (inactive) | GI50 (OVCAR-8): 18.7 µM (inactive) | GI50 (RPMI-8226): > 10 µM (inactive) | GI50 (RXF 393): 16.3 µM (inactive) | GI50 (SF-268): 17.4 µM (inactive) | GI50 (SF-295): 17.8 µM (inactive) | GI50 (SK-MEL-28): 17.8 µM (inactive) | GI50 (SK-MEL-2): 18.7 µM (inactive) | GI50 (SK-MEL-5): 19.2 µM (inactive) | GI50 (SK-OV-3): 17.9 µM (inactive) | GI50 (SN12C): 17.2 µM (inactive) | GI50 (SNB-19): 24.5 µM (inactive) | GI50 (SNB-75): 22.8 µM (inactive) | GI50 (SR): 22 µM (inactive) | GI50 (SW-620): 19.5 µM (inactive) | GI50 (TK-10): 38.5 µM (inactive) | GI50 (U-251): 17.2 µM (inactive) | GI50 (UACC-257): 17.9 µM (inactive) | GI50 (UACC-62): 18.7 µM (inactive) | GI50 (UO-31): 17.7 µM (inactive) | GI50 (XF498): 18.3 µM (inactive)

CCNC1CC(n2cc(C)c(=O)[nH]c2=O)OC1CO (configuration not stated)
GI50 (786-0): > 100 µM (inactive) | GI50 (A498): > 100 µM (inactive) | GI50 (CAKI-1): > 100 µM (inactive) | GI50 (CCRF-CEM): > 100 µM (inactive) | GI50 (COLO 205): > 100 µM (inactive) | GI50 (DLD-1): > 100 µM (inactive) | GI50 (DMS-114): > 100 µM (inactive) | GI50 (DMS-273): > 100 µM (inactive) | GI50 (HCC 2998): > 100 µM (inactive) | GI50 (HCT-116): > 100 µM (inactive) | GI50 (HL-60): > 100 µM (inactive) | GI50 (HOP-62): > 100 µM (inactive) | GI50 (HOP-92): > 100 µM (inactive) | GI50 (IGROV-1): > 100 µM (inactive) | GI50 (K562): > 100 µM (inactive) | GI50 (LXFL 529): > 100 µM (inactive) | GI50 (M14): > 100 µM (inactive) | GI50 (M19-MEL): > 100 µM (inactive) | GI50 (MOLT-4): > 100 µM (inactive) | GI50 (Malme-3M): > 100 µM (inactive) | GI50 (NCI-H226): > 100 µM (inactive) | GI50 (NCI-H23): > 100 µM (inactive) | GI50 (NCI-H460): > 100 µM (inactive) | GI50 (NCI-H522): > 100 µM (inactive) | GI50 (OVCAR-4): > 100 µM (inactive) | GI50 (RPMI-8226): > 100 µM (inactive) | GI50 (SF-268): > 100 µM (inactive) | GI50 (SF-539): > 100 µM (inactive) | GI50 (SK-MEL-28): > 100 µM (inactive) | GI50 (SK-MEL-2): > 100 µM (inactive) | GI50 (SK-OV-3): > 100 µM (inactive) | GI50 (SN12C): > 100 µM (inactive) | GI50 (SNB-75): > 100 µM (inactive) | GI50 (SNB-78): > 100 µM (inactive) | GI50 (SR): > 100 µM (inactive) | GI50 (UACC-62): > 100 µM (inactive) | GI50 (UO-31): > 100 µM (inactive) | GI50 (XF498): > 100 µM (inactive)

CC(=O)OCC1OC(n2c(-c3ccccc3)cc(-c3ccco3)c(C#N)c2=O)C(OC(C)=O)C(OC(C)=O)C1OC(C)=O (configuration not stated)
GI50 (A498): > 100 µM (inactive) and 68.1 µM (inactive) | GI50 (ACHN): 76.7 µM (inactive) and 49.7 µM (inactive) | GI50 (CAKI-1): 52.5 µM (inactive) | GI50 (DMS-114): 28.8 µM (inactive) and 30.5 µM (inactive) | GI50 (DMS-273): 25.8 µM (inactive) and 36.3 µM (inactive) | GI50 (EKVX): > 100 µM (inactive) | GI50 (HCC 2998): > 100 µM (inactive) and 52.4 µM (inactive) | GI50 (HCT-116): 7.46 µM (inactive) and 5.86 µM (inactive) | GI50 (HL-60): 3.84 µM (inactive) | GI50 (HT-29): > 100 µM (inactive) | GI50 (IGROV-1): > 31.6 µM (inactive) and 36.8 µM (inactive) | GI50 (LXFL 529): 12.7 µM (inactive) and > 10 µM (inactive) | GI50 (M19-MEL): 54.6 µM (inactive) and 30.9 µM (inactive) | GI50 (MOLT-4): > 22.8 µM (inactive) and 14.8 µM (inactive) | GI50 (NCI-H226): > 100 µM (inactive) | GI50 (NCI-H460): 57.4 µM (inactive) | GI50 (NCI-H522): 29.5 µM (inactive) and 20.7 µM (inactive) | GI50 (OVCAR-3): 33.3 µM (inactive) and > 31.6 µM (inactive) | GI50 (OVCAR-4): > 56.6 µM (inactive) and 74.3 µM (inactive) | GI50 (OVCAR-5): > 100 µM (inactive) | GI50 (RPMI-8226): 8.38 µM (inactive) | GI50 (RXF 393): > 32.1 µM (inactive) and 19.3 µM (inactive) | GI50 (SF-295): 39.9 µM (inactive) and 57.5 µM (inactive) | GI50 (SK-MEL-28): 22.3 µM (inactive) and 39.3 µM (inactive) | GI50 (SK-MEL-2): 14.6 µM (inactive) and 28.1 µM (inactive) | GI50 (SK-OV-3): > 100 µM (inactive) and 98.6 µM (inactive) | GI50 (SNB-78): 45.7 µM (inactive) and 25.9 µM (inactive) | GI50 (SW-620): > 31.6 µM (inactive) and 49.3 µM (inactive) | GI50 (TK-10): > 31.6 µM (inactive) and 27.2 µM (inactive) | GI50 (UACC-257): > 89.1 µM (inactive) and 75.7 µM (inactive) | GI50 (XF498): 16.2 µM (inactive)
